Source: patent US9545393B2, “Methods and compositions for treating pain” (The Board of Trustees of the Leland Stanford Junior …, priority 2012, dated 2017)
Entries after “also recorded” stand apart in the source; their conditions may differ.

Columns and labels:
[1] = Half-life of Alda-1 (preliminary studies); format: in vivo; conditions: estimated; reason for multiple doses
Procedure: Alda-1 dose (2 mg/kg/per injection, dissolved in 50% PEG/50% DMSO) was established in preliminary studies and given in multiple doses due to its estimated short half-life. Alda-1 was injected subcutaneously to the dorsal side of the neck 15 minutes before carrageenan or saline, and again at 30 and 150 minutes after carrageenan, prostaglandin E2 or saline injection. One subset of animals received Alda-1 only 30 and 150 minutes after carrageenan injection. Where indicated, naloxone (1 mg/kg per injection) or vehicle (saline) was given 10 minutes prior to each Alda-1 treatment to the dorsal side of the neck.

[2] = tested on: carrageenan-induced edema; test: Edema assessment of the carrageenan-injected paw (plethysmometer); format: in vivo, rat; conditions: rats, 3 hr after carrageenan; Alda-1-treated versus vehicle-treated
Procedure: Edema Assessment. Inflammation-induced edema of the injected paw was assessed using a plethysmometer (Ugo Basile) (Clapper J R, et al., (2010) Anandamide suppresses pain initiation through a peripheral endocannabinoid mechanism. Nature neuroscience 13: 1265-1270; Van Arman C G, et al., (1965) Some details of the inflammation caused by yeast and carragenin. J Pharmacol Exp Ther 150: 328-333).

[3] = tested on: mast cell chymase; test: Western blot of mast cell chymase in paw after carrageenan; format: in vivo, rat; conditions: rats, 3 hours after carrageenan; Alda-1 versus vehicle
Procedure: (§1) Biochemical Studies In Rats and Mice. Protein was isolated from rat paw tissue at 3 hours after treatment or from liver tissue of mutant or wild type mice. Tissues were homogenized in buffer containing (Hepes 10 mM, NaCl 0.9%, EGTA 1 mM, DTPA 100 μM, Triton-X 1%, Protease and Phosphatase inhibitors (AEBSF, Aprotinin, Bestatin, E-64, Leupeptin, Pepstatin A, Sodium orthovanadate, Sodium molybdate, Sodium tartrate, Imidazole, Cantharidin, (−)-p-Bromolevamisole oxalate and Calyculin A). The samples were centrifuged at 700 g for 5 min at 4° C. Mitochondrial fraction from liver was obtained as previously described (Chen, et al. (2008) Activation of aldehyde dehydrogenase-2 reduces ischemic damage to the heart. Science 321, 1493-1495; Sun, L., et al. ALDH2 activator inhibits increased myocardial infarction injury by nitroglycerin tolerance. Sci Transl Med 3, 107ra111). Activation of aldehyde dehydrogenase-2 reduces ischemic damage to the heart. Science 2008; 321:1493-5). The protein concentration was determined in the supernatants by using Bradford (Bradford, M. M. (1976). A rapid and sensitive method for the quantitation of microgram quantities of protein utilizing the principle of protein-dye binding. Anal Biochem 72, 248-254).
(§2) Western blot analysis. […] Quantification analysis of blots was performed with Image J software, using GAPDH as a loading control.

[4] = tested on: rats subjected to prostaglandin E2 insult to the right hind paw; test: Randall-Selitto paw pressure test, prostaglandin E2-induced hyperalgesia in rats; format: in vivo, rat
Procedure: Rats. Male Wistar rats (170-190 g) were provided by Charles River Laboratories or Butantan Institute Animal Facility and housed in a temperature-controlled (22±1° C.) and light-controlled (12/12 h light/dark cycle) room. All rats were housed in their surrounding for at least 3 days. Groups of 5-6 rats were used.
Drugs Used. 0.1 ml saline (control), carrageenan (200 μg for rats, 100 μg for mice; Marine Colloids), or prostaglandin E2 (100 ng, Sigma) was administered by intraplantar injection into the right hind paw to induce hyperalgesia. […]
Nociception Assessment. […] Nociceptive response was assessed by the von Frey method for mice and the Randall-Selitto method for rats immediately before and 180 minutes after carrageenan or prostaglandin E2 injection. […]
Randall-Selitto method: Nociceptive threshold was determined using the Randall-Selitto paw pressure test (Ugo-Basile), as previously described (Gutierrez V P, et al., (2008) Crotalphine induces potent antinociception in neuropathic pain by acting at peripheral opioid receptors. European journal of pharmacology 594: 84-92). […]

[5] = tested on: ALDH2 *1/*2 heterozygous mice; test: von Frey hair test, carrageenan-induced acute pain model, ALDH2 *1/*2 heterozygous mice; format: in vivo, mouse; conditions: von Frey hair (1.20 gram in FIG. 1E), Alda-1 2 mg/kg s.c.
[6] = tested on: 4-hydroxynonenal (4-HNE) protein adducts; test: Western blot of 4-HNE protein adducts in inflamed paw; format: in vivo, rat; conditions: rats, 3 hours after carrageenan; P<0.01
Procedure: as §1, §2

[7] = tested on: ALDH2 wild type mice; test: von Frey hair test, carrageenan-induced acute pain model, wild type mice; format: in vivo, mouse; conditions: von Frey hair (1.20 gram in FIG. 1E), Alda-1 2 mg/kg s.c.

O=C(NCc1ccc2c(c1)OCO2)c1c(Cl)cccc1Cl [Alda-1, N-(1,3-benzodioxol-5-ylmethyl)-2,6-dichlorobenzamide]
Half-life [1]: short | Carrageenan-induced increase in paw diameter (edema) [2]: no differences; also recorded: unaffected | Mast cell chymase level in the paw [3]: no differences; also recorded: increased equally | Increase of nociceptive threshold ([4]; prostaglandin E2-induced model, Alda-1 2 mg/kg s.c. 15 min before and 30 and 150 min after insult, tested 3 hours after insult): 2 fold | Nociceptive threshold (FIG. 1B) ([4]; prostaglandin E2 insult, Alda-1 2 mg/kg s.c., 3 hours after insult, P<0.001): significantly increased nociceptive threshold | Response to nociceptive stimulus / pain threshold [5]: significantly increased pain threshold; also recorded: bringing the response to wild type levels | 4-HNE-protein adduct levels in the inflamed paw [6]: reduced | Nociceptive threshold relative to vehicle-treated mice [7]: significantly increased pain threshold; also recorded: doubling the nociceptive threshold
